Measurements reported in patent publication US20100035848A1, “THERAPY FOR DISORDERS OF THE PROXIMAL DIGESTIVE TRACT” (priority 2008, published 2010).

Assays:
gastric PGE2 synthesis = assay: Acute indomethacin-induced gastric toxicity in rats: gastric PGE2 synthesis; assay type: in vivo, rat; conditions: indomethacin 20 mg/kg p.o.
Method: A study was conducted to determine whether GL1001 would inhibit acute NSAID (indomethacin)-induced gastric toxicity in a rat model (Wallace et al. (1998) Gastroenterol. 115:101-109). Several modes of treatment with GL1001 or vehicle were employed, which included administration via drinking water, oral administration and subcutaneous administration as shown in Table 4. Irrespective of the route of drug or vehicle administration, male Wistar rats were deprived of food for 16 h prior to oral administration of 20 mg/kg indomethacin (Sigma) or vehicle (5% w/v sodium bicarbonate; 1 ml/kg). Three hours later the rats were sacrificed and the severity of gastric damage was blindly scored. This involved measurement of the lengths (in mm) of all hemorrhagic erosions and summing these to give a “gastric damage score” for each stomach. Samples of the stomach were taken for measurement of prostaglandin E2 (PGE2) synthesis as described by Wallace et al. (1998), supra, and myeloperoxidase activity as described by Souza et al. (2003) Am. J. Physiol. 285:[…]-61. Myeloperoxidase is an enzyme found in all cells of mycloid origin, but particularly enriched within neutrophils. It is therefore used as a biochemical marker of granulocyte infiltration into tissue. Each group consisted of 6 rats. As a negative control, one group received vehicle pretreatments (in the drinking water and by oral gavage) and then received vehicle instead of indomethacin. […] [table] In the experiments where GL1001 (or vehicle) was added to drinking water, the rats were provided with the modified drinking water for 2 days prior to administration of indomethacin (or vehicle). This included the period when the rats were deprived of food. GL1001 was prepared in 0.1M citrate buffer before being added to the drinking water. Based on average water consumption by rats, this was aimed at providing a daily dose of GL1100 of 1200 mg/kg (water consumption was monitored for several days prior to initiation of the study). Oral or subcutaneous administration of GL1001 (or vehicle) was performed 30 minutes prior to administration of indomethacin. Data are expressed as mean±SEM. When two groups of data were compared, a Student's t-test was used. When more than two groups of data were compared, a one-way analysis of variance followed by the Newman-Keuls test was used. An associated probability of less than 5% was considered statistically significant.

ACE2 = target: T1, ACE2 (Rattus norvegicus, UniProt Q5EGZ1); assay: Stomach tissue homogenates spiked with excess GL1001, ACE2 fluorescence assay; assay type: biochemical
T1 construct: from tissue; host or cells: rat stomach (excluding forestomach) homogenate
Method: Three hours after diclofenac treatment, all animals were sacrificed and stomachs were removed and imaged to determine the severity of gastric damage. Additionally, stomach tissue samples were taken to assess disease activity and pharmacodynamic effects. Gastric damage scores were determined from photographic images (Ma & Wallace (2003) Am. J. Physiol. Gastrointest. Liver Physiol. 279; 341-346). Removed stomachs were opened along the greater curvature, pinned out on a wax block, and photographed along a 25 mm ruler reference with a digital 35 mm camera. The lesion area was then determined using enlarged images and computer software (www.scioncorp.co/pages/scion_image_windows.htm) that allows superimposed drawing of the perimeter of a wound and calculation of the area based on the ruler reference. Stomach samples (excluding forestomach) were used for measurements of PGE2 concentration, MPO activity and ACE2 activity. […] Concentration of PGE2 from stomach tissue samples was performed as described by Souza et al. (2003), supra, and quantification was obtained by LC-MS. […] Last, the extent of inhibition of ACE2 activity was determined to establish whether GL1001 was effective in inhibiting its ACE2 target in stomach tissues. […]

T1 sequence (Q5EGZ1 18-805): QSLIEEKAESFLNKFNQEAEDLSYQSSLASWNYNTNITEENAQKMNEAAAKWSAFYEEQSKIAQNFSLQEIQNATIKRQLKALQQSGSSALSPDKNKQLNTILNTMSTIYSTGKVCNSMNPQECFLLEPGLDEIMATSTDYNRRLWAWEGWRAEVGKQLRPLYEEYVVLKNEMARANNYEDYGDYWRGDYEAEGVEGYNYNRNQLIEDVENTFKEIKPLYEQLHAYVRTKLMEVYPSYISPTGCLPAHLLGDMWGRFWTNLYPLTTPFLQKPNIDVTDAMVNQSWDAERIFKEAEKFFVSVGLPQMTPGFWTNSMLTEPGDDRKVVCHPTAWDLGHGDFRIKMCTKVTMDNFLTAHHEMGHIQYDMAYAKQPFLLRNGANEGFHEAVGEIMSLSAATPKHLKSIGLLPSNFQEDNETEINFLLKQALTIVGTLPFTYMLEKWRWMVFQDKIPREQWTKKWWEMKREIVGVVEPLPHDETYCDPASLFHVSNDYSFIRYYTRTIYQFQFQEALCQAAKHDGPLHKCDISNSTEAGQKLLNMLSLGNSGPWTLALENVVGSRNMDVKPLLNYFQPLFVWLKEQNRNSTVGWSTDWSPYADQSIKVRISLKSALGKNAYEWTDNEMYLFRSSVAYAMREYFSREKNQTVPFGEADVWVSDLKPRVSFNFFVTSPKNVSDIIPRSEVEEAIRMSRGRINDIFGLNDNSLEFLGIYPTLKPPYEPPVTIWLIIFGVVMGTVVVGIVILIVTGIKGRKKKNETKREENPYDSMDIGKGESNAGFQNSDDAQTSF

further inhibition of ACE2 on spiking (ACE2; tissue samples of Group C (dosed in vivo with GL1001) spiked with excess GL1001): no further inhibition | decrease in the fluorescence signal (ACE2 specific activity) (ACE2; tissue samples of Groups A and B spiked with vast excess of GL1001 (>IC90)): 40-50%
SMILES: CC(C)C[C@H](N[C@@H](Cc1cncn1Cc1cc(Cl)cc(Cl)c1)C(=O)O)C(=O)O [GL1001, (S,S)-2-[1-carboxy-2-[3-(3,5-dichlorobenzyl)-3H-imidazol-4-yl]-ethylamino]-4-methylpentanoic acid]
Gastric PGE2 synthesis (gastric PGE2 synthesis; Group A: GL1001 in drinking water, vehicle Group B 3.83 ± 0.98): 5.31 ± 1.54 ng/mg | Gastric PGE2 synthesis (gastric PGE2 synthesis; Group C: GL1001 p.o. and in drinking water, vehicle Group D 3.07 ± 0.55): 2.37 ± 0.51 ng/mg | Gastric PGE2 synthesis (gastric PGE2 synthesis; Group F: GL1001 s.c. and in drinking water, vehicle Group G 3.60 ± 0.32): 3.57 ± 0.59 ng/mg | Gastric PGE2 synthesis (gastric PGE2 synthesis; Group H: GL1001 p.o., vehicle Group I 6.08 ± 1.00): 4.44 ± 0.40 ng/mg
